Values joined by “and” are separate entries in the source; they are usually repeats but may differ in a detail not shown here. Equal entries are not always repeated. Inconclusive results and toxic doses are left out. The calls were made as follows: active = survival T/C of 150% or more; inactive = T/C below 125% in these data.
Tested on: P388 leukemia ip, CD2F1 mice, survival T/C
Experiment: NCI In Vivo Anticancer Drug Screen. Data for tumor model P388 Leukemia (intraperitoneal) in CD2F1 (CDF1) mice
Settings: endpoint: median survival time, higher = longer survival
Method in brief: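 Mice carrying the transplanted tumor received test compound or vehicle. Survival was recorded in each group, and the value is the treated-group measurement divided by that of the vehicle-treated control group.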

[1] = dose: 50.0 mg/kg/injection, schedule: Q01DX005 (ip), vehicle: Klucel (hydroxypropylcellulose) (HPC)
[2] = dose: 100.0 mg/kg/injection, schedule: Q01DX005 (ip), vehicle: Klucel (hydroxypropylcellulose) (HPC)
[3] = dose: 200.0 mg/kg/injection, schedule: Q01DX005 (ip), vehicle: Klucel (hydroxypropylcellulose) (HPC)
[4] = dose: 50.0 mg/kg/injection, schedule: Q04DX002 (ip), vehicle: saline with Tween-80
[5] = dose: 100.0 mg/kg/injection, schedule: Q04DX002 (ip), vehicle: saline with Tween-80
[6] = dose: 100.0 mg/kg/injection, schedule: Q01DX009 (ip), vehicle: saline with Tween-80
[7] = dose: 50.0 mg/kg/injection, schedule: Q01DX009 (ip), vehicle: saline
[8] = dose: 100.0 mg/kg/injection, schedule: Q01DX009 (ip), vehicle: saline
[9] = dose: 60.0 mg/kg/injection, schedule: Q01DX005 (ip), vehicle: saline with Tween-80
[10] = dose: 120.0 mg/kg/injection, schedule: Q01DX005 (ip), vehicle: saline with Tween-80
[11] = dose: 240.0 mg/kg/injection, schedule: Q01DX005 (ip), vehicle: saline with Tween-80
[12] = dose: 50.0 mg/kg/injection, schedule: Q01DX009 (ip), vehicle: saline with Tween-80
[13] = dose: 50.0 mg/kg/injection, schedule: Q01DX005 (ip), vehicle: saline with Tween-80
[14] = dose: 100.0 mg/kg/injection, schedule: Q01DX005 (ip), vehicle: saline with Tween-80
[15] = dose: 200.0 mg/kg/injection, schedule: Q01DX005 (ip), vehicle: saline with Tween-80
[16] = dose: 100.0 mg/kg/injection, schedule: Q01DX001 (ip), vehicle: saline with Tween-80

Measured: T/C

CC(=O)OCc1nc2ncnc(N)c2[nH]1
inactive: dose: 12.5 mg/kg/injection, schedule: Q01DX005 (ip), vehicle: distilled water + Tween-80 99 % of control | dose: 25.0 mg/kg/injection, schedule: Q01DX005 (ip), vehicle: distilled water + Tween-80 103 % of control | dose: 50.0 mg/kg/injection, schedule: Q01DX005 (ip), vehicle: distilled water + Tween-80 108 % of control | dose: 100.0 mg/kg/injection, schedule: Q01DX005 (ip), vehicle: distilled water + Tween-80 97 % of control | dose: 200.0 mg/kg/injection, schedule: Q01DX005 (ip), vehicle: distilled water + Tween-80 97 % of control

O=C(Nc1ccccc1C(=O)OCCCl)NN1CCCCCC1
inactive: [1] 107 % of control | [2] 100 % of control | [3] 98 % of control

COc1ccc(C2(c3ccc(OC)cc3)N=C(N(C)C)NC2=O)cc1
inactive: [4] 102 % of control | [5] 97 % of control | dose: 200.0 mg/kg/injection, schedule: Q04DX002 (ip), vehicle: saline with Tween-80 94 % of control

COc1cccc(/C=N\O)c1
inactive: [6] 104 % of control | dose: 200.0 mg/kg/injection, schedule: Q01DX009 (ip), vehicle: saline with Tween-80 100 % of control | dose: 400.0 mg/kg/injection, schedule: Q01DX009 (ip), vehicle: saline with Tween-80 104 % of control

Nc1ccc(N)c2c1C(=O)c1c(N)ccc(N)c1C2=O
inactive: [1] 102 % of control | [2] 100 % of control | [3] 101 % of control

CCNC(=O)OOC(C)(C)C
inactive: [7] 102 % of control | [8] 101 % of control

CCOC(=O)C(C)(NC(=O)CN)C1CC1 (stereo unspecified)
inactive: [7] 90 % of control | [8] 94 % of control | dose: 200.0 mg/kg/injection, schedule: Q01DX009 (ip), vehicle: saline 97 % of control

CC(C)(Br)C(=O)N1CCN(C(c2ccccc2)c2ccccc2)CC1
inactive: [9] 92 % of control | [10] 91 % of control | [11] 89 % of control

CN(C)CCCN1CN(CCCN(C)C)CC(C)(C)C1
inactive: [12] 103 % of control | [6] 106 % of control

CN=C(NCCCOC)c1ccc(NC(=O)c2ccc(C(=O)Nc3ccc(C(=NC)NCCCOC)cc3)cc2)cc1
inactive: dose: 5.0 mg/kg/injection, schedule: Q01DX009 (ip), vehicle: saline 118 % of control | dose: 5.0 mg/kg/injection, schedule: Q04DX003 (ip), vehicle: saline 100 % of control | dose: 10.0 mg/kg/injection, schedule: Q01DX009 (ip), vehicle: saline 122 % of control | dose: 10.0 mg/kg/injection, schedule: Q04DX003 (ip), vehicle: saline 100 % of control | dose: 20.0 mg/kg/injection, schedule: Q01DX009 (ip), vehicle: saline 90 % of control | dose: 20.0 mg/kg/injection, schedule: Q04DX003 (ip), vehicle: saline 95 % of control

CC1=NNC(=O)C1N=Nc1c(C)n(C)n(-c2ccccc2)c1=O (stereo unspecified)
inactive: [13] 100 % of control | [14] 99 % of control | [15] 100 % of control

Cc1nnc2c(NO)nccn12
inactive: dose: 75.0 mg/kg/injection, schedule: Q01DX001 (ip), vehicle: saline 99 % of control | dose: 150.0 mg/kg/injection, schedule: Q01DX001 (ip), vehicle: saline 101 % of control | dose: 300.0 mg/kg/injection, schedule: Q01DX001 (ip), vehicle: saline 96 % of control

O=[N+]([O-])CC(OCCCCCCO)C(Cl)(Cl)Cl (stereo unspecified)
inactive: [12] 100 % of control | [6] 95 % of control

CC(=O)OCC1OC(Nc2[nH]c(=O)n(C)c(=O)c2C=O)C(OC(C)=O)C(OC(C)=O)C1OC(C)=O (stereo unspecified)
inactive: [9] 105 % of control | [10] 109 % of control | [11] 103 % of control

O=C1C=CC(O)C2OC12 (stereo unspecified)
inactive: dose: 5.0 mg/kg/injection, schedule: Q04DX002 (ip), vehicle: saline 111 % of control | dose: 10.0 mg/kg/injection, schedule: Q04DX002 (ip), vehicle: saline 113 % of control

CN1CCN(CC(O)Cn2c(=O)c3c(nc(N4CCN(C)CC4)n3C)n(C)c2=O)CC1 (stereo unspecified)
inactive: dose: 50.0 mg/kg/injection, schedule: Q01DX009 (ip), vehicle: Klucel (hydroxypropylcellulose) (HPC) 87 % of control | dose: 100.0 mg/kg/injection, schedule: Q01DX009 (ip), vehicle: Klucel (hydroxypropylcellulose) (HPC) 102 % of control | dose: 200.0 mg/kg/injection, schedule: Q01DX009 (ip), vehicle: Klucel (hydroxypropylcellulose) (HPC) 105 % of control

CCOC(=O)C1=C(Nc2cccc3c(NC4=C(C(=O)OCC)C(=O)CO4)cccc23)OCC1=O
inactive: [9] 109 % of control | [10] 99 % of control | [11] 98 % of control

Cc1cc(NCCCN(C)C)c2ccc3cc4ccccc4cc3c2n1
inactive: dose: 25.0 mg/kg/injection, schedule: Q04DX002 (ip), vehicle: saline with Tween-80 93 % of control | [4] 92 % of control | [5] 108 % of control and 94 % of control

COC(C)(C)[CH]([Hg][Cl])n1ccccc1=O (stereo unspecified)
inactive: dose: 6.25 mg/kg/injection, schedule: Q04DX003 (ip), vehicle: Klucel (hydroxypropylcellulose) (HPC) 100 % of control | dose: 12.5 mg/kg/injection, schedule: Q04DX003 (ip), vehicle: Klucel (hydroxypropylcellulose) (HPC) 93 % of control | dose: 25.0 mg/kg/injection, schedule: Q04DX003 (ip), vehicle: Klucel (hydroxypropylcellulose) (HPC) 99 % of control and 100 % of control

CCOC(=O)C1=C(Nc2ccc(OC)cc2)C(N)=NC1=N
inactive: dose: 6.25 mg/kg/injection, schedule: Q01DX009 (ip), vehicle: suspension in saline 100 % of control | dose: 12.5 mg/kg/injection, schedule: Q01DX009 (ip), vehicle: suspension in saline 102 % of control and 110 % of control | dose: 25.0 mg/kg/injection, schedule: Q01DX009 (ip), vehicle: suspension in saline 106 % of control and 117 % of control | dose: 50.0 mg/kg/injection, schedule: Q01DX009 (ip), vehicle: suspension in saline 102 % of control and 121 % of control | dose: 100.0 mg/kg/injection, schedule: Q01DX009 (ip), vehicle: suspension in saline 92 % of control

Nc1cc(N2C(=O)c3ccccc3C2=O)ccc1Cl
inactive: [13] 109 % of control | [14] 109 % of control | [15] 100 % of control

COCCC(=NC(C)(C)C)Nc1c(Cl)cccc1Cl
inactive: [7] 110 % of control | [8] 108 % of control

O=C(NCCCCCCCCCCNC(=O)C12CC3CC(CC(C3)C1)C2)C12CC3CC(CC(C3)C1)C2
inactive: dose: 12.5 mg/kg/injection, schedule: Q01DX005 (ip), vehicle: saline with Tween-80 98 % of control | dose: 25.0 mg/kg/injection, schedule: Q01DX005 (ip), vehicle: saline with Tween-80 96 % of control | [13] 86 % of control and 91 % of control

Cc1cccc(Nc2c3ccccc3nc3ccccc23)c1
inactive: dose: 25.0 mg/kg/injection, schedule: Q01DX001 (ip), vehicle: saline with Tween-80 95 % of control | dose: 50.0 mg/kg/injection, schedule: Q01DX001 (ip), vehicle: saline with Tween-80 100 % of control | [16] 95 % of control

OC1c2ccccc2-c2cccc(N=Cc3ccc4c(c3)OCO4)c21 (stereo unspecified)
inactive: [9] 108 % of control | [10] 97 % of control | [11] 95 % of control

O=C(O)c1c[nH]c2c(ccc3[nH]cc(C(=O)O)c(=O)c32)c1=O
inactive: dose: 60.0 mg/kg/injection, schedule: Q01DX005 (ip), vehicle: Klucel (hydroxypropylcellulose) (HPC) 105 % of control | dose: 120.0 mg/kg/injection, schedule: Q01DX005 (ip), vehicle: Klucel (hydroxypropylcellulose) (HPC) 102 % of control | dose: 240.0 mg/kg/injection, schedule: Q01DX005 (ip), vehicle: Klucel (hydroxypropylcellulose) (HPC) 92 % of control

c1cc2[nH]c3ccncc3c2cn1
inactive: dose: 25.0 mg/kg/injection, schedule: Q01DX009 (ip), vehicle: saline with Tween-80 102 % of control | [12] 105 % of control

COc1ccc2c(C)c[nH]c2c1
inactive: [16] 100 % of control | dose: 200.0 mg/kg/injection, schedule: Q01DX001 (ip), vehicle: saline with Tween-80 118 % of control | dose: 400.0 mg/kg/injection, schedule: Q01DX001 (ip), vehicle: saline with Tween-80 100 % of control

Cc1ccc2ccccc2[n+]1CC(=O)c1ccc([N+](=O)[O-])cc1
inactive: dose: 6.25 mg/kg/injection, schedule: Q01DX005 (ip), vehicle: Klucel (hydroxypropylcellulose) (HPC) 108 % of control | dose: 12.5 mg/kg/injection, schedule: Q01DX005 (ip), vehicle: Klucel (hydroxypropylcellulose) (HPC) 108 % of control | dose: 25.0 mg/kg/injection, schedule: Q01DX005 (ip), vehicle: Klucel (hydroxypropylcellulose) (HPC) 103 % of control | [13] 96 % of control | [14] 102 % of control | [15] 111 % of control

Reference: PubChem BioAssay AID330 (DTP/NCI, 2004)
